This note sets out measurements from PubChem BioAssay AID488890 (Southern Research Specialized Biocontainment Screening …, 2010).

Results filed as inconclusive are left out. Calls of active or inactive are those of the source. The rule behind the calls is not given here.

For this assay, the system named is Mycobacterium tuberculosis non-replicating, growth inhibition. Description: growth inhibition of non-replicating M. tuberculosis (AID 488890).
Take `CC/C(=C\c1oc2cc3ccccc3cc2[n+]1CC)Nc1ccccc1`: the 50% inhibitory concentration (IC50) (commonly the midpoint of a concentration-inhibition curve) is 3.14 µM. On to `Cc1[nH][nH]c(=O)c1C(c1ccc(-c2ccc(F)cc2)o1)c1c(C)[nH][nH]c1=O`, for which the half-maximal inhibitory concentration (IC50) was 8.5 µM. As to `CCOc1cc(CNC(C)(C)CO)cc(Br)c1OCc1ccc(Cl)cc1Cl`, the IC50 is 10.8 µM (inactive). As to `Cc1cc(NCc2ccccn2)n2nc(C)c(-c3ccc(Cl)cc3)c2n1`, the IC50 is 1.85 µM. On to `CC(C)(C)NC(=O)COC(=O)c1snc(C(=O)NC2CCCCC2)c1N`, for which the IC50 was 1.64 µM. As for `NC(N)=Nc1nc(-c2ccccc2)c2ccccc2n1`, the IC50 is 12.8 µM (inactive).

Take `O=C(NCC(c1cccs1)N1CCOCC1)c1cc([N+](=O)[O-])cc([N+](=O)[O-])c1` (stereo not given): the IC50 was 2.96 µM. For the compound `COC(=O)c1ccc(COC(=O)CCS(=O)(=O)c2ccc(C)cc2)cc1`, the IC50 is 19 µM (inactive). Regarding `Cc1ccc(S(=O)(=O)N2CCC(C(=O)OCc3ccccc3)CC2)cc1C`, the IC50 was 9.82 µM.

Take `O=C(COC(=O)c1cc(Cl)ccc1O)c1ccc2c(c1)OCO2`: the IC50 is 6.61 µM.

Turning to `Cc1[nH]nc2c1C(c1ccc(-c3ccc(Cl)cc3)o1)C(C#N)=C(N)O2` (stereo not given), the IC50 is 2.24 µM. Regarding `O=C(COC(=O)c1ccc([N+](=O)[O-])s1)Nc1ccc(Cl)cn1`, the IC50 is 2.37 µM.

Regarding `O=C(NNC1=Nc2ccccc2SC1)c1ccc(F)cc1`, the IC50 is 17.3 µM (inactive). `CC1=NN(C(=O)COc2ccccc2C)C(O)(c2ccc(Cl)cc2)C1` (stereo not given): the IC50 is 1.4 µM. As for `COc1ccc2oc(=O)c(/C(C)=N/NC(=O)c3ccncc3)cc2c1`, the figure is 0.84 µM; as for `FC(F)(F)c1ccc(-c2nnc(-c3cccnc3)o2)cc1`, 6.48 µM.

For `Cn1c(=O)c(Oc2ccc(F)cc2)c(O)c2ccccc21`, the IC50 was 8.27 µM. The value for `CCOc1ccc(-c2nc3ccccc3c(=O)o2)cc1` was 6.27 µM; that for `Cn1cnc([N+](=O)[O-])c1Sc1ccc(Br)cc1` was 23.6 µM (inactive); that for `CCOc1cc(C=O)cc(N=Nc2cccc([N+](=O)[O-])c2)c1O` was 1.31 µM. As for `Cc1nc2ccc(NC(=O)c3ccc([N+](=O)[O-])cc3[N+](=O)[O-])cc2s1`, the figure is 7.88 µM. The value for `CCOc1ccc(OC(=O)c2ccc3c(=O)n4c(nc3c2)CCC4)cc1` was 0.5 µM; that for `Cc1ccccc1Nc1c(-c2ccccn2)nc2ccccn12` was 13.9 µM (inactive); that for `Cc1nc(C(=O)NNC(=O)c2ccc(Cl)cc2)c(C(F)(F)F)o1` was 13.9 µM (inactive).

On to `CSC1=N/C(=C\c2ccc(Br)o2)C(=O)S1`, for which the IC50 is 28.7 µM (inactive). The value for `Cc1cccc(NC(=O)COC(=O)c2cc3ccccc3oc2=O)c1` was 14.2 µM (inactive); that for `COC(=O)c1ccc(OCC(=O)c2cccc(OC)c2)cc1` was 11 µM (inactive); that for `O=C(Nc1nnc(-c2cc(Cl)ccc2Cl)o1)C1=COCCO1` was 22 µM (inactive). The value for `Cc1cc(N2CCC(C)CC2)nc(-n2nc(C)cc2C)n1` was 0.83 µM; that for `O=[N+]([O-])c1ccc(CN2CCN(c3ccccc3Cl)CC2)o1` was 3.83 µM; that for `O=C(COC(=O)c1cccs1)NCCC1=CCCCC1` was 14.1 µM (inactive). On to `COc1ccc(C(C#N)=C2C=CC(=NO)C=C2)cc1`, for which the IC50 is 16 µM (inactive). As for `Clc1ccc(SCCCCn2ccnc2)cc1`, the figure is 4.89 µM; as for `COC(=O)c1ccc(N2CCN(CCNC(=O)Nc3ccc(OC)cc3)CC2)cc1`, 6.13 µM; as for `O=[N+]([O-])c1c(Nc2ccccn2)cc(Cl)c2nonc12`, below 0.1 µM. With `Cc1ccc(-n2nnnc2CNC(=O)c2ccc([N+](=O)[O-])o2)cc1C`, the IC50 is 24.2 µM (inactive). Consider `Cc1nn2c(NCc3ccccn3)cc(C(C)C)nc2c1-c1ccccc1`, for which the half-inhibitory concentration (IC50) is 1.44 µM.

For the compound `COc1ccc(N=Cc2nc(-c3ccccc3)oc2OC(C)=O)cc1`, the IC50 is 17.4 µM (inactive).

Consider `CN(O)/C=c1/ccc2c(n1)C(=O)C=CC=2`, for which the IC50 was 1.92 µM.

Take `COc1ccccc1C(=O)OCC(=O)Nc1ccc(Cl)cn1`: the IC50 is 16.2 µM (inactive). In the case of `O=c1c2c(nc3c(-c4ccccc4)c[nH]n13)CCCC2`, the IC50 is 21.1 µM (inactive). The value for `Cc1ccc(C(=O)COC(=O)CCc2ccc(S(=O)(=O)N3CCCCC3)cc2)cc1` was 23 µM (inactive); that for `CC1=NNC(=O)/C1=C\c1cn(-c2ccccc2)nc1-c1ccccc1` was 7.73 µM.

Take `CCOC(=O)COc1cc(O)c2c(=O)cc(-c3ccccc3)oc2c1`: the half-inhibitory concentration (IC50) is 0.44 µM.

Take `CCCOC(=O)c1ccc(NC(=O)c2ccc(Br)o2)cc1`: the IC50 was 2.96 µM. Turning to `CC(Cc1ccccc1Sc1ccccc1)N(C)C` (stereo not given), the IC50 was 26 µM (inactive). Consider `CCn1nnc(NC(=O)c2ccc(-c3ccc(Cl)cc3)o2)n1`, for which the 50% inhibitory concentration (IC50) is 3.07 µM. With `COc1ccc(NCC(=O)N2CCCC2)cc1Cl`, the IC50 is 10.8 µM (inactive).

With `Cc1ccc(NC(=O)c2noc(C(C)C)c2[N+](=O)[O-])cc1`, the IC50 is 19.3 µM (inactive). `CC1=NN(C(=O)c2csc(C)c2)C(O)(C(F)(F)F)C1` (stereo not given): the IC50 was 0.49 µM. On to `Cc1ccc(CO/N=C/c2c(O)cc(C)oc2=O)cc1`, for which the IC50 is 16.6 µM (inactive). `CO/N=C/CC(=O)c1ccc(OC)cc1`: the IC50 is 30.5 µM (inactive).

`O=C(CCC1CCCCC1)NCc1cccs1`: the IC50 was 0.27 µM. As for `O=C(CNC(=O)c1ccc(Br)cc1)c1ccc(Br)cc1`, the figure is 18.3 µM (inactive); as for `O=C(Oc1ccccc1)c1cccc(COC(=O)c2cnccn2)c1`, 28.6 µM (inactive).

In the case of `O=C1c2ccccc2-n2c1nc1ccccc1c2=O`, the half-inhibitory concentration (IC50) is 2.8 µM. With `COc1cccc(C(=O)OCn2nnc3ccccc3c2=O)c1OC`, the IC50 is 19 µM (inactive).

For `COc1cccc(OCc2nnc(-c3cccs3)o2)c1`, the IC50 is 1.57 µM. `COc1ccc(C(CCNCc2ccc(OC(C)C)cc2)C(C)C)cc1` (stereo not given): the IC50 was 10.2 µM (inactive). As to `Cc1ccccc1OCCCCc1c(C)n[nH]c1C`, the IC50 is 13.1 µM (inactive). As for `CN(C)S(=O)(=O)c1ccc(C(=O)Oc2ccccc2)cc1`, the IC50 is 2.41 µM. Regarding `Cc1cc2n(n1)SC(Nc1ccccc1)N2` (stereo not given), the IC50 was 26.7 µM (inactive). As to `O=C(NC1=NCCS1)c1ccc(-c2ccc(Cl)cc2)o1`, the IC50 was 11.9 µM (inactive). For the compound `O=[N+]([O-])c1cnc(Nc2ccc(Cl)cn2)c([N+](=O)[O-])c1`, the half-inhibitory concentration (IC50) is 1.89 µM. As to `O=C(Oc1ccccc1)c1ccc(COC(=O)c2cnccn2)cc1`, the IC50 is 10.7 µM (inactive). In the case of `CN(C)/C=C1/C(=O)N(c2ccc([N+](=O)[O-])cc2)N=C1c1ccccc1`, the IC50 was 17.7 µM (inactive).

With `COc1ccccc1C1=Nn2c(nnc2C2CCCCC2)SC1`, the IC50 was 13.9 µM (inactive). Turning to `CCOc1ccc(C(=O)N/N=C/c2cccc3cccnc23)cc1`, the half-inhibitory concentration (IC50) is 4.65 µM. For the compound `O=C(O)c1ccc(CN2C(=O)CSC2=S)cc1`, the IC50 is 9 µM. Take `O=C(Nc1ccn(Cc2ccccc2)n1)c1ccc(F)cc1`: the IC50 was 14.8 µM (inactive). As for `CCOC(=O)c1ccc(-n2c(CCC(=O)O)ccc2-c2cccs2)cc1`, the figure is 36.2 µM (inactive); as for `O=C(Nc1nnc(-c2ccc(Br)cc2)o1)C1=COCCO1`, 24.6 µM (inactive). In the case of `O=C(N/N=C/C=C/c1ccccc1)c1ccncc1`, the IC50 was 0.92 µM. With `Cc1ccc(/C=N/NC(=O)c2ccncc2)o1`, the IC50 is 2.07 µM. The value for `Fc1ccc(N2CCN(Cc3nnc(-c4ccccc4)o3)CC2)cc1` was 18.9 µM (inactive); that for `O=C(CCc1ccc(Oc2cc([N+](=O)[O-])cc([N+](=O)[O-])c2)cc1)N1CCCCC1` was 4.85 µM; that for `CC(Oc1ccc(Cl)cc1)C(=O)NNC(=S)NC(=O)c1ccco1` (stereo not given) was 22.3 µM (inactive).

On to `CCOC(=O)C(=O)NC12CC3CC(CC(C3)C1)C2`, for which the 50% inhibitory concentration (IC50) was 6.5 µM. For `O=C(N/N=C/C=C/c1ccccc1)c1cccs1`, the IC50 was 45.2 µM (inactive).

Take `O=C(NCc1cccs1)c1ccc([N+](=O)[O-])cc1`: the concentration for half-maximal inhibition (IC50) is 2.84 µM. The value for `Cc1cc(C(=O)N/N=C/c2cccc(Cl)c2Cl)no1` was 1.01 µM; that for `CC1=NN(C(=O)c2ccccc2)C(O)(c2ccc(Br)cc2)C1` (stereo not given) was 0.62 µM. Turning to `O=C(CCC1CCCC1)Nc1ccc(Br)cn1`, the IC50 was 3.88 µM. `Cc1nc2scc(-c3ccccc3)c2c(=O)o1`: the IC50 is 14.8 µM (inactive). As to `CCCCCCOc1ccc(C(=O)O)cc1C#N`, the IC50 was 42.7 µM (inactive). As for `CN1C(=O)N(C)c2ccc(C=O)c3cccc1c23`, the figure is 3.65 µM; as for `C=C1Cn2c(nnc2-c2ccc(Cl)cc2)S1`, 12.8 µM (inactive); as for `CCOC(=O)C(=CNNc1cccc(Cl)c1)C(=O)OCC`, 18.7 µM (inactive). `O=C(NNc1ccc([N+](=O)[O-])cc1)C1CC1c1ccccc1` (stereo not given): the concentration for half-maximal inhibition (IC50) was 8.96 µM. Regarding `CCOC(=O)c1cc(-c2cccc([N+](=O)[O-])c2)on1`, the IC50 was 0.64 µM. Take `CCN(CC)CCSc1nnc2c3cc(C)ccc3n(Cc3ccccc3)c2n1`: the IC50 was 14.3 µM (inactive).

Consider `CCOC(=O)c1nn(-c2ccccc2)c2nc(Nc3ccccc3)cc(=O)n12`, for which the IC50 was 4.74 µM.

With `COc1ccc(C(=O)NCC(=O)N/N=C/c2ccc([N+](=O)[O-])o2)cc1OC`, the IC50 was 4.97 µM.

Take `O=C(CC(=O)c1ccccc1O)c1cccc(F)c1`: the concentration for half-maximal inhibition (IC50) was 8.89 µM. As for `COc1cc(CNC2CCCC2)cc(Cl)c1OCc1ccc(F)cc1`, the figure is 17.5 µM (inactive). As for `CSc1ccc(C(=O)C2CCCN(Cc3cc4ccccc4[nH]3)C2)cc1` (stereo not given), the IC50 is 11.1 µM (inactive).

With `COc1ccc(O)c(C(=O)CC(=O)c2ccc(F)cc2)c1`, the IC50 was 17.2 µM (inactive). As to `CC(C)(C)/C(O)=C/c1nc2ccccc2oc1=O`, the half-maximal inhibitory concentration (IC50) was 6.85 µM. As for `CCCCc1ccc(NS(=O)(=O)c2c(C)n(C)c(=O)n(C)c2=O)cc1`, the figure is 27.1 µM (inactive); as for `CCCn1nnnc1NCc1ccc(C(C)C)cc1`, 5.89 µM.
